Experimental data: ChEMBL document CHEMBL5360532, “Current scenario of quinolone hybrids with potential antibacterial activity against ESKAPE pathogens” (Eur J Med Chem, 2023)
Values after ≈ are worked out from the molar mass of the structure shown. Blank lines part the entries; values can stand above or below the molecule they belong to.

Assays:
Format in all cases: functional
Enterococcus faecium = experiment: Antibacterial activity against Enterococcus faecium clinical isolates assessed as bacterial growth inhibition measured after 16 to 24 hrs by broth microdilution assay; settings: time 16-24 hrs
Enterococcus faecalis [1] = experiment: Antibacterial activity against Enterococcus faecalis clinical isolates assessed as bacterial growth inhibition measured after 16 to 24 hrs by broth microdilution assay; settings: time 16-24 hrs
[2] = tested on: Staphylococcus haemolyticus; experiment: Antibacterial activity against Staphylococcus haemolyticus clinical isolates assessed as bacterial growth inhibition measured after 16 to 24 hrs by broth microdilution assay; settings: time 16-24 hrs
Haemophilus parasuis = experiment: Antibacterial activity against Haemophilus parasuis clinical isolates assessed as bacterial growth inhibition measured after 16 to 24 hrs by broth microdilution assay; settings: Glaesserella parasuis; time 16-24 hrs
Streptococcus agalactiae = experiment: Antibacterial activity against Streptococcus agalactiae assessed as bacterial growth inhibition measured after 16 to 24 hrs by broth microdilution assay; settings: time 16-24 hrs
Streptococcus pneumoniae [3] = experiment: Antibacterial activity against Streptococcus pneumoniae assessed as bacterial growth inhibition measured after 16 to 24 hrs by broth microdilution assay; settings: time 16-24 hrs
Enterococcus = experiment: Antibacterial activity against vancomycin resistant Enterococcus assessed as bacterial growth inhibition measured after 16 to 24 hrs by broth microdilution assay; settings: time 16-24 hrs
Staphylococcus aureus [4] = experiment: Antibacterial activity against Staphylococcus aureus clinical isolates assessed as bacterial growth inhibition measured after 16 to 24 hrs by broth microdilution assay; settings: time 16-24 hrs
Haemophilus influenzae = experiment: Antibacterial activity against Haemophilus influenzae assessed as bacterial growth inhibition measured after 16 to 24 hrs by broth microdilution assay; settings: time 16-24 hrs
[5] = tested on: Staphylococcus epidermidis; experiment: Antibacterial activity against Staphylococcus epidermidis clinical isolates assessed as bacterial growth inhibition measured after 16 to 24 hrs by broth microdilution assay; settings: time 16-24 hrs
Staphylococcus aureus [6] = experiment: Antibacterial activity against methicillin resistant Staphylococcus aureus assessed as bacterial growth inhibition measured after 16 to 24 hrs by broth microdilution assay; settings: time 16-24 hrs
Enterococcus faecalis [7] = experiment: Antibacterial activity against Enterococcus faecalis assessed as bacterial growth inhibition measured after 16 to 24 hrs by broth microdilution assay; settings: time 16-24 hrs
Streptococcus pneumoniae [8] = experiment: Antibacterial activity against Streptococcus pneumoniae clinical isolates assessed as bacterial growth inhibition measured after 16 to 24 hrs by broth microdilution assay; settings: time 16-24 hrs
Staphylococcus aureus [9] = experiment: Antibacterial activity against Staphylococcus aureus assessed as bacterial growth inhibition measured after 16 to 24 hrs by broth microdilution assay; settings: time 16-24 hrs
Streptococcus suis = experiment: Antibacterial activity against Streptococcus suis clinical isolates assessed as bacterial growth inhibition measured after 16 to 24 hrs by broth microdilution assay; settings: time 16-24 hrs
Staphylococcus aureus [10] = experiment: Potency index, ratio of ciprofloxacin MIC to test compound MIC for antimicrobial activity against Staphylococcus aureus MLS16 MTCC 2940 assessed as bacterial growth inhibition measured after 24 hrs by microdilution assay
Staphylococcus aureus [11] = experiment: Potency index, ratio of ciprofloxacin MIC to test compound MIC for antimicrobial activity against Staphylococcus aureus MTCC 424 assessed as bacterial growth inhibition measured after 24 hrs by microdilution assay
Escherichia coli [12] = experiment: Antibacterial activity against Escherichia coli MTCC 1687 assessed as bacterial growth inhibition measured after 24 hrs by microdilution assay
Escherichia coli [13] = experiment: Potency index, ratio of ciprofloxacin MIC to test compound MIC for antimicrobial activity against Escherichia coli MTCC 1687 assessed as bacterial growth inhibition measured after 24 hrs by microdilution assay
Staphylococcus aureus [14] = experiment: Antibacterial activity against Staphylococcus aureus MLS16 MTCC 2940 assessed as bacterial growth inhibition measured after 24 hrs by microdilution assay
Pseudomonas aeruginosa = experiment: Antibacterial activity against Pseudomonas aeruginosa MTCC 424 assessed as bacterial growth inhibition measured after 24 hrs by microdilution assay
Staphylococcus aureus [15] = experiment: Antibacterial activity against Staphylococcus aureus MTCC 737 assessed as bacterial growth inhibition measured after 24 hrs by microdilution assay

Structure (SMILES): C[C@H]1CCc2c(N3CCC(O)(COc4ccc(N5C[C@H](CO)OC5=O)cc4F)CC3)c(F)cc3c(=O)c(C(=O)O)cn1c23
MIC (Enterococcus faecium): ≤ 0.063 µg/mL | MIC (Enterococcus faecalis [1]): ≤ 0.063 µg/mL | MIC [2]: ≤ 0.063 µg/mL | MIC (Haemophilus parasuis): ≤ 0.063 µg/mL | MIC (Streptococcus agalactiae): 0.016 µg/mL (≈ 0.0267 µM) | MIC (Streptococcus pneumoniae [3]): 0.016 µg/mL (≈ 0.0267 µM) | MIC (Enterococcus): 0.016 µg/mL (≈ 0.0267 µM) | MIC (Staphylococcus aureus [4]): ≤ 0.063 µg/mL | MIC (Haemophilus influenzae): 0.016 µg/mL (≈ 0.0267 µM) | MIC [5]: ≤ 0.063 µg/mL | MIC (Staphylococcus aureus [6]): 0.016 µg/mL (≈ 0.0267 µM) | MIC (Enterococcus faecalis [7]): 0.016 µg/mL (≈ 0.0267 µM) | MIC (Streptococcus pneumoniae [8]): ≤ 0.063 µg/mL | MIC (Staphylococcus aureus [9]): 0.016 µg/mL (≈ 0.0267 µM) | MIC (Streptococcus suis): ≤ 0.063 µg/mL

MIC (Escherichia coli [12]): 2.34 µg/mL (≈ 6.09 µM) | MIC (Staphylococcus aureus [14]): 2.34 µg/mL (≈ 6.09 µM) | MIC (Pseudomonas aeruginosa): 2.34 µg/mL (≈ 6.09 µM) | MIC (Staphylococcus aureus [15]): 2.34 µg/mL (≈ 6.09 µM)
Structure (SMILES): COc1ccc(-c2cc(-c3c(O)c4ccccc4[nH]c3=O)nc(N)c2C#N)cc1
Ratio (Staphylococcus aureus [10]): 2 | Ratio (Staphylococcus aureus [11]): 2 | Ratio (Escherichia coli [13]): 2
